These results are taken from US8846704B2, “Thiopyrimidine-based compounds and uses thereof” (YM Biosciences Austraila Pty Ltd, priority 2007, dated 2014).

Molecules are shown by their SMILES.

Assay type in all cases: cell-based
Test [1] has as its target T1, BaF3 TELJAK2 cells (BafT_J2) (Homo sapiens, UniProt O60674).
T1 construct: fused on or other part: TEL (ETV6) N-terminal part, coding nucleotides 1-487, serves as the oligomerising partner; It is fused through a Sal I site to the JAK2 kinase domain and expressed from pTRE2 in BaF3 cells bearing pTET-off; P41212 (Transcription factor ETV6)
The experiment in a line: Cellular screening, BaF3 TEL:JAK2 cells, Alamar Blue. The following applies: 40 hr, read-out: BafT_J2 IC50_nM. In outline:
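Tet-off BaF3 cells carrying a TEL (nt 1-487)–JAK2 kinase-domain fusion, grown factor-independently in DMEM with 10% Tet-approved FBS without WEHI 3B medium. Compounds were diluted to 20 μM in screening plates, and cells (50,000–200,000 cell/mL at 1.1×) were incubated 40 hr at 37 °C, 5% CO2. Alamar Blue was then added for 4-6 hours; read at 544 nm.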
(The colour change of resazurin is a common sign of viable cells or microbes.)

Test [2] has as its target T2, BaF3 TELJAK3 cells (Homo sapiens, UniProt P52333).
T2 construct: fused on or other part: TEL (ETV6) N-terminal part, coding nucleotides 1-487, serves as the oligomerising partner; It is fused through a Sal I site to the JAK3 kinase domain and expressed from pTRE2 in BaF3 cells bearing pTET-off; P41212 (Transcription factor ETV6)
T2 sequence (P52333 1-1124): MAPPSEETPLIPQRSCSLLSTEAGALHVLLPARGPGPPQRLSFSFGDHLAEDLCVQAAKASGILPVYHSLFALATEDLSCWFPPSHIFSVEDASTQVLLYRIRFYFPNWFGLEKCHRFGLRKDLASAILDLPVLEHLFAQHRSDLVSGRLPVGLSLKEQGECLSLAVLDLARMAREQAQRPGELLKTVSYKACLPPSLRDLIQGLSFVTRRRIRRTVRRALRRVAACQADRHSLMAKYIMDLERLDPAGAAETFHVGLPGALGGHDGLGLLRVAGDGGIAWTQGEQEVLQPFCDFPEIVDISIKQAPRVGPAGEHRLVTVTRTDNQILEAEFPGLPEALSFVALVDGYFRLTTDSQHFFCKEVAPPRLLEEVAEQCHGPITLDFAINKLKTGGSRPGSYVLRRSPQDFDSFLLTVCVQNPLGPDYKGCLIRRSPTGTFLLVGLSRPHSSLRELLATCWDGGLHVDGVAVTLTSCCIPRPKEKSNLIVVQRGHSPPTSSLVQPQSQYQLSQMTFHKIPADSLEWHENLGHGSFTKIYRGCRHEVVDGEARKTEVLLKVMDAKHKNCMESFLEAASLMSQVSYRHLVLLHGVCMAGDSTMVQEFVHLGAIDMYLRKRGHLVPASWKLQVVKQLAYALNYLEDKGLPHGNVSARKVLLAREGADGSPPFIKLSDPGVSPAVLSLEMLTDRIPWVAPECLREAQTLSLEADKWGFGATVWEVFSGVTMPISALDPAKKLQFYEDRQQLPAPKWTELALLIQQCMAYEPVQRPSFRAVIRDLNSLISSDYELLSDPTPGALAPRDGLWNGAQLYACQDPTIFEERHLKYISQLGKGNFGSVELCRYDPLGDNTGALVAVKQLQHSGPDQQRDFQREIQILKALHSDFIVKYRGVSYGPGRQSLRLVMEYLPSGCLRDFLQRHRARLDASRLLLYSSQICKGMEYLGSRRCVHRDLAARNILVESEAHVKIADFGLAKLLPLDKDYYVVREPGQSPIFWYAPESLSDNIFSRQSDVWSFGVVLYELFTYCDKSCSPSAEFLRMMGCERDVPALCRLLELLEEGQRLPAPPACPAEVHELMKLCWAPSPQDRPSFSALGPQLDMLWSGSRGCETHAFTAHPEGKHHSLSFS
Briefly: Cellular screening, BaF3 TEL:JAK3 cells, Alamar Blue. To be noted: 40 hr, read-out: BafT_J3 IC50_nM. The method, then:
For screening purposes, compounds were diluted in 96 well plates at a concentration of 20 μM. Plates were warmed at 37° C. for 30 minutes before the assay was performed.
The coding region encompassing nucleotides 1-487 of TEL was amplified by PCR using the oligonucleotides STEL (5′-GGAGGATCCTGATCTCTCTCGCTGTGAGAC-3′) [SEQ ID NO 14] and 3TEL (5′-AGGC GTCGACTTCTTCTTCATGGTTCTG-3′) [SEQ ID NO 15] and U937 mRNA as a template. A […] restriction site was incorporated into the STEL primer, and a Sal I restriction site was incorporated into the 3TEL primer. The regions encompassing the kinase domain of JAK2 (nucleotides 2994-3914; JAK2F 5′-ACGC GTCGACGGTGCCTTTGAAGACCGGGAT-3′ [SEQ ID NO 16]; JAK2R 5′-ATAGTTTAGCGGCCGCTCAGAATGAAGGTCATTT-3′) [SEQ ID NO 17] and JAK3 (nucleotides 2520-3469; JAK3F 5′-GAAGTCGACTATGCCTGCCAAGACCCCACGATCTT-3′) [SEQ ID NO 18] were generated by PCR using Taq DNA polymerase (Gibco/BRL) and […] as a template. A Sal I restriction site was incorporated into the forward primer of JAK2 and JAK3, a Not I site was incorporated into the JAK2 reverse primer and a Xba I site was added to the reverse primer of JAK3.
The TEL/Jak3 fusion was prepared by ligation of the JAK3 Sal I/Not I cleaved kinase domain PCR product with the BamH I/Sal I restriction digested TEL product, followed by ligation of the ligation product into the BamH I/Not I digested pTRE2, to give the TEL/Jak3 fusion plasmid pTELJAK3.
The growth factor dependant myelomonocytic cell line BaF3 bearing the pTET-off plasmid (Clontech) was transfected with either pTELJAK2 or pTELJAK3, and the transfected cells were selected for growth-factor independent cell growth. The BaF3 wild-type cells were cultured in DMEM containing 10% FCS, 10% WEHI 3B conditioned medium. The BaF3 TELJAK cells ([…]) were cultured in DMEM 10% Tet-System Approved FBS (without WEHI 3B conditioned medium).
Cell suspensions were prepared by harvesting cells from culture (the cells used in this test were in late log phase growth with high viability.) Cells were diluted in the appropriate growth medium, as described above, to 1.1× final concentration (from 50,000 cell/mL to 200,000 cell/mL, depending on cell line).
Compounds to be tested were added (10 μL, 10× final concentration) to a flat bottomed 96-well plate. The cellular suspension (90 μL per well) was then added, and the plate incubated for 40 hr at 37° C., 5% CO2. Alamar Blue 10 μL per well was added and the plates returned to the incubator for a further 4-6 hours. The plates were then read at 544 nm.

Test [3] deals with BaF3 wild-type cells. Briefly: Cellular screening, BaF3 wild-type cells, Alamar Blue. To be noted: Mus musculus, 40 hr, read-out: BAF3wt IC50_nM. In outline: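 Compounds, screened from dilution plates at 20 μM, were added as 10× final stocks to cells grown in DMEM/10% FCS/10% WEHI 3B conditioned medium. Cells were seeded at 1.1× final (50,000–200,000 cells/mL) and incubated 40 hr at 37° C, 5% CO2. Viability was read at 544 nm after a further 4–6 hours with Alamar Blue.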

T1 sequence (O60674 whole entry, change not shown, the tested form may be a part): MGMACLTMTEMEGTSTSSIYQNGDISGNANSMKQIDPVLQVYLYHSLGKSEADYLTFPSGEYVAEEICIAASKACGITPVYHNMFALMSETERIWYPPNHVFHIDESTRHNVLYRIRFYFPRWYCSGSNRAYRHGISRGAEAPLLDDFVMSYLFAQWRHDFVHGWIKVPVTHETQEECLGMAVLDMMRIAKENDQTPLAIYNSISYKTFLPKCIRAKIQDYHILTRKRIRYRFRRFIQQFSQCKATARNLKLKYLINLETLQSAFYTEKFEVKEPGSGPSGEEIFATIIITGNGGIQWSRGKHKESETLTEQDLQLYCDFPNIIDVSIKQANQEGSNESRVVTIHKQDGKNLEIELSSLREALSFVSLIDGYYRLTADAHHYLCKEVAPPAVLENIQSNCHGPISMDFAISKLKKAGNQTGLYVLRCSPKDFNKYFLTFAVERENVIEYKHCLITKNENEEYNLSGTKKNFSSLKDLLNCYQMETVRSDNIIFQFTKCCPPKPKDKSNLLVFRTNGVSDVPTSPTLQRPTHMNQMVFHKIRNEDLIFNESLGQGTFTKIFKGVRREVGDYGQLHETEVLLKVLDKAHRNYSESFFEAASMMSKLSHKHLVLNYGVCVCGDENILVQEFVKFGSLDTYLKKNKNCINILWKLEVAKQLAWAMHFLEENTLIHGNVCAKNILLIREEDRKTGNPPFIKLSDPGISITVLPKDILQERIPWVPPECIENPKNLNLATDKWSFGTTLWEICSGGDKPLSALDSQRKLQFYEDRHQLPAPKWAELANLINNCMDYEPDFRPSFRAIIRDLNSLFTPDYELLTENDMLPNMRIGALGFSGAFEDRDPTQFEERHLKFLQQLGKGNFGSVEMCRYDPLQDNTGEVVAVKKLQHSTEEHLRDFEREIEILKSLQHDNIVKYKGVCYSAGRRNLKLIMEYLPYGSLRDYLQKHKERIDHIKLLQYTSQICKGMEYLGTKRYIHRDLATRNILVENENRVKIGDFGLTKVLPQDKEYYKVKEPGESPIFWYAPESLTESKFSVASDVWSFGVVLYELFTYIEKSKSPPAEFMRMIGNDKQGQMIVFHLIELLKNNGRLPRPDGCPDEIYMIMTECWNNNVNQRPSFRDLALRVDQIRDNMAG

With `CC#CC(=O)Nc1cccc(Nc2nccc(SC)n2)c1` [Compound 8, N-(3-(4-(methylthio)pyrimidin-2-ylao)phenyl)but-2-ynamide], the GI50 in test [1] and in test [2] was below 5 µM throughout. For the same molecule, the IC50 in test [3] was below 20 µM.

As to `C=CC(=O)Nc1ccc(Nc2nccc(SC)n2)cc1` [Compound 13, N-(4-(4-(methylthio)pyrimidin-2-ylao)phenyl)acrylamide], the GI50 in test [1] was below 20 µM; in test [2], above 20 µM. Further, in test [3], the IC50 was above 20 µM.

Turning to `C=CC(=O)Nc1ccc(Sc2nc(Nc3cccc(NS(C)(=O)=O)c3)ncc2C)cc1` [Compound 288, N-(4-(5-methyl-2-(3-(methylsulfonamido)phenylao)pyrimidin-4-ylthio)phenyl)acrylamide], the GI50 is below 20 µM in test [1] and below 1 µM in test [2]. The IC50 in test [3] was below 20 µM.

Regarding `Cc1cnc(Nc2ccc(O)cc2)nc1Sc1ccc(NC(=O)CCl)cc1` [Compound 193, 2-chloro-N-(4-(2-(4-hydroxyphenylao)-5-methylpyrimidin-4-ylthio)phenyl)acetamide], the GI50 is below 5 µM in test [1] and below 1 µM in test [2]. The IC50 in test [3] is below 5 µM.

Consider `C=CC(=O)Nc1ccc(Sc2nc(Nc3ccc(N4CCC(CO)CC4)cc3)ncc2Br)cc1` [Compound 253, N-(4-(5-bromo-2-(4-(4-(hydroxymethyl)piperidin-1-yl)phenylao)pyrimidin-4-ylthio)phenyl)acrylamide], for which the GI50 in test [1] is below 20 µM; in test [2] it was below 1 µM. In test [3], the IC50 is above 20 µM.

In the case of `C=CC(=O)N(C)c1ccc(Sc2nc(Nc3ccc(N4CCOCC4)cc3)ncc2C)cc1` [Compound 173, N-methyl-N-(4-(5-methyl-2-(4-morpholinophenylao)pyrimidin-4-ylthio)phenyl)acrylamide], the GI50 in test [1] was below 20 µM; in test [2] it was below 1 µM. In addition, the IC50 in test [3] was below 20 µM.

Regarding `C=CC(=O)Nc1ccc(Sc2nc(Nc3ccc(N4CCOCC4)c(OC)c3)ncc2C)cc1` [Compound 248, N-(4-(2-(3-methoxy-4-morpholinophenylao)-5-methylpyrimidin-4-ylthio)phenyl)acrylamide], the GI50 in test [1] was below 20 µM; in test [2], below 1 µM. For the same molecule, the IC50 in test [3] was below 5 µM.

For `CCOC(=O)/C=C/C(=O)Nc1ccc(Sc2nc(Nc3ccc(N4CCOCC4)cc3)ncc2C)cc1` [Compound 385, (E)-ethyl 4-(4-(5-methyl-2-(4-morpholinophenylao)pyrimidin-4-ylthio)phenylao)-4-oxobut-2-enoate], the results for the GI50 in test [1] and in test [2] were above 20 µM and below 1 µM, respectively. Further, in test [3], the IC50 was above 20 µM.

Consider `Cc1cnc(Nc2ccc(N3CCOCC3)cc2)nc1Sc1ccc(NC(=O)/C=C\C(=O)O)cc1` [Compound 380, (Z)-4-(4-(5-methyl-2-(4-morpholinophenylao)pyrimidin-4-ylthio)phenylao)-4-oxobut-2-enoic acid], for which the GI50 in test [1] and in test [2] was above 20 µM in each case. Moreover, the IC50 in test [3] was above 20 µM.

Turning to `C=CC(=O)Nc1ccc(Sc2ccnc(Nc3ccc(S(N)(=O)=O)c(OC)c3)n2)cc1` [Compound 374, N-(4-(2-(3-methoxy-4-sulfamoylphenylao)pyrimidin-4-ylthio)phenyl)acrylamide], the results for the GI50 in test [1] and in test [2] were below 5 µM and below 1 µM, respectively. For the same molecule, the IC50 in test [3] is below 5 µM.

For the molecule `CNC(=O)/C=C\C(=O)Nc1ccc(Sc2nc(Nc3ccc(N4CCOCC4)cc3)ncc2C)cc1` [Compound 389, N1-methyl-N4-(4-(5-methyl-2-(4-morpholinophenylao)pyrimidin-4-ylthio)phenyl)maleamide], the GI50 was below 20 µM in test [1] and below 1 µM in test [2]. Also, in test [3], the IC50 is below 20 µM.

As for `C=CC(=O)Nc1cccc(Sc2ccnc(Nc3cccc(N4CCOCC4)c3)n2)c1` [Compound 110, N-(3-(2-(3-morpholinophenylao)pyrimidin-4-ylthio)phenyl)acrylamide], the GI50 in test [1] was below 20 µM; in test [2], below 1 µM. The IC50 in test [3] was below 20 µM.

As to `Cc1cnc(Nc2ccc(N3CCOCC3)cc2)nc1Sc1ccc(N2C(=O)CSCC2=O)cc1` [Compound 231, 4-(4-(5-methyl-2-(4-morpholinophenylao)pyrimidin-4-ylthio)phenyl)thiomorpholine-3,5-dione], the GI50 in test [1] and in test [2] was below 20 µM throughout. Moreover, the IC50 in test [3] is above 20 µM.

Regarding `C=CC(=O)Nc1ccc(Sc2nc(Nc3ccc(OCCN4CCOCC4)cc3)ncc2C)cc1` [Compound 290, N-(4-(5-methyl-2-(4-(2-morpholinoethoxy)phenylao)pyrimidin-4-ylthio)phenyl)acrylamide], the GI50 in test [1] was below 20 µM; in test [2], below 1 µM. Also, the IC50 in test [3] was below 5 µM.

As to `N#Cc1ncn(Cc2ccc(Sc3ccnc(Nc4ccc(N5CCOCC5)cc4)n3)cc2)c1C#N` [Compound 201, 1-(4-(2-(4-morpholinophenylao)pyrimidin-4-ylthio)benzyl)-1H-imidazole-4,5-dicarbonitrile], the GI50 in test [1] and in test [2] was below 5 µM in each case. The IC50 in test [3] is below 5 µM.
